Laboratory results: patent publication US10653688B2, “6-(6-membered heteroaryl and aryl)isoquinolin-3-yl carboxamides and preparation and use thereof” (Samumed, LLC, priority 2017, dated 2020)
Where two headings read alike, the source gives them in different places.

Key:
[1] = system: Tau phosphorylation at Ser396 (pSer396) in SH-SY5Y cells; experiment: Tau phosphorylation at Ser396 (pSer396) cell assay, ELISA/western blot; type: cell-based, human; settings: Homo sapiens
Experimental: SH-SY5Y cells (human neuroblastoma) were cultured in DMEM/F-12 medium supplemented with 15% FBS, Non-essential Amino Acid and Penicillin/Streptomycin. Two days before treatment, cells were seeded onto 96 well plates at 5×10^4 cells/well.
The above synthesized compounds were screened using the cell assay procedure to assess decrease Tau phosphorylation at Ser396 (pSer396) described below.
DMSO-resuspended compounds were dispensed to 8 wells as a serial titration from 10 μM to 4.6 nM final in medium and cells were exposed overnight (16-18 h) in a humidified incubator at 36.6c before harvest.
Cells were lysed with RIPA buffer complemented with phosphatase and protease inhibitors then lysates were spun down at 12,000 g for 10 min to remove any cellular debris. Lysates are then either directly tested for pSer396 by ELISA (Life Technology, Kit KHB7031) or loaded on NuPage Bis-Tris gels for western blot analysis. Colorimetric detection of ELISA signal is performed by Cytation3 plate reader (Biotek) and the chemiluminescence signal for HRP-linked antibodies used in western blotting is detected using a Carestream Image Station. The same pSer396 antibody is used for detection of pTau in both assays.
Blot densitometry for pSer396 and β-actin were analyzed using ImageJ (NIH) and pSer396 Tau ELISA signal was used to plot, draw the curve fitting, and determine each compounds EC50 in Prism (GraphPad).

[2] = system: SW480 colon carcinoma cells; experiment: Cell viability assay (CellTiter-Glo); type: cell-based, human; settings: Homo sapiens; for EC50: 96 h, four days, CellTiter-Glo; for inhibition at 10 µM: read-out: percent inhibition at 10 μM (given for EC50 >10 μM), 10 μM
[3] = target: recombinant DYRK1A kinase (Homo sapiens (Human), UniProt Q13627); experiment: DYRK1A kinase assay (Ser/Thr 18 peptide Z-lyte, FRET)
[4] = system: pT212Tau in Dyrk1a- and MAPT-overexpressing HEK293T cells; experiment: Tau phosphorylation at Threonine 212 (pT212Tau) sandwich ELISA in double transfected cells; settings: Homo sapiens, HEK-293T, read-out: Thr212 EC50 (μM)
[5] = system: Cyclin D1 phosphorylation at Threonine 286 (pCcnD1) over total Cyclin D1 in SH-SY5Y cells; experiment: phosphoCcnD1 to total CcnD1 ratio (PTT) cell-based assay, western blot; settings: Homo sapiens, 48 hours
Experimental: Representative compounds were screened using the cell-based assay procedure for the ratio of signal of Cyclin D1 phosphorylation at Threonine 286 (pCcnD1) over the signal of total Cyclin D1 (CcnD1) (abbreviated: phosphoCcnD1 to total CcnD1 ratio, or PTT) as described below.
SH-SY5Y cells (human neuroblastoma, Sigma, Saint-Louis, Mo.) were cultured in 1:1 DMEM/F-12 medium supplemented with 15% FBS, 1% non-essential amino acid, and 1% penicillin/streptomycin.
SH-SY5Y cells were seeded at 1.0×10^5 cells in 1 mL per well in a 24-well plate. After cell adherence was confirmed, DMSO-resuspended Samumed compounds were dispensed to eight wells as a serial dilution from 10 μM to 4.6 nM final concentration in medium, or at 1.1 μM to 4.6 nM with particularly potent compounds. Cells were exposed to Samumed compounds for 48 hours in a 37° C. incubator.
Wells of compound-treated cells were visually checked for cell death before being washed with 500 μL per well of 1×DPBS supplemented with phosphatase inhibitor diluted to 1×. Cells were then lysed with 90 μL 1×RIPA buffer supplemented with phosphatase and protease inhibitors (each diluted to a final 1×). After scraping, 60 μL of cell lysate from each sample was used to dilute 4×LDS (ThermoFisher, NP0007) and 20×XT reducing agent (Bio-Rad, 1610792), each diluted to 1× final. All samples were then denatured via boiling at 95° C. Denatured cell sample lysates were directly tested for pCcnD1 and total CcnD1 signal by Western blot techniques and analysis. Specifically, denatured lysates were directly transferred to NuPAGE™ 4-12% Bis-Tris Midi Protein Gels, 26-well gels (ThermoFisher, WG1403BOX). Gels were transferred to […] nitrocellulose membranes via iBlot™ Transfer Stack, nitrocellulose, regular size (ThermoFisher, IB301031). Membranes were blocked with 1×TBS, 5% milk (Bio-Rad, 1706404XTU) before being probed for overnight with either anti-pCcnD1 primary antibody (Cell Signaling Technology, 2978S) or anti-total CcnD1 primary antibody (Cell Signaling Technology, 3300S) diluted 1:500 in 1×TBS-0.05% Tween-20, 3% milk. After overnight incubation in primary antibodies, membranes were washed profusely with 1×TBS-0.05% Tween-20 and probed for 1 hour with secondary anti-rabbit/HRP conjugate (Cell Signaling Technology, 7074S) diluted 1:1000 in 1×TBS-0.05% Tween-20, 3% milk. After incubation in secondary antibody, membranes were washed with 1×TBS-0.05% Tween-20.
Probed and washed membranes were developed for pCcnD1 or total CcnD1 signal with SuperSignal™ West Femto Maximum Sensitivity Substrate (ThermoFisher, 34096) using the ChemoDoc-It^2 (UVP) and related GelDocIt imaging software. Blots were then stripped, blocked, stained with anti-β-actin/HRP conjugate antibody (Cell Signaling Technology, 5125S), developed, and imaged for housekeeping β-actin protein control as previously described. Densitometry was measured with ImageJ (NIH) and signal was used to plot, draw the curves fitting, and determine the EC50 values in GraphPad Prism for tested Samumed compounds.

[6] = SH-SY5Y cells, overnight (16-18 h), read-out: pSer396 Tau EC50
[7] = DYRK1A kinase, head says EC50, method says IC50, ATP 30 μM

SMILES: O=C(CN1CCCC1)Nc1cc2cc(-c3cccnc3)ccc2cn1 [Compound 7, N-(6-(Pyridin-3-yl)isoquinolin-3-yl)-2-(pyrrolidin-1-yl)acetamide]
- EC50 [1, 6]: 2.2 µM
- EC50 [2]: 3530 nM
- EC50 [3, 7]: 7 nM
- EC50 [4]: 0.225 µM

SMILES: O=C(Nc1cc2cc(-c3cccnc3)ccc2cn1)C12CCN(CC1)CC2 [Compound 9, N-(6-(Pyridin-3-yl)isoquinolin-3-yl)quinuclidine-4-carboxamide]
- EC50 ([1]; SH-SY5Y, read-out: pSer396 Tau EC50 (μM)): > 10 µM
- EC50 [2]: > 10000 nM
- inhibition at 10 µM [2]: 26%
- EC50 [3, 7]: 26 nM
- EC50 [4]: 0.213 µM

SMILES: O=C(CN1CCOCC1)Nc1cc2cc(-c3cccnc3)ccc2cn1 [Compound 10, 2-Morpholino-N-(6-(pyridin-3-yl)isoquinolin-3-yl)acetamide]
- EC50 [1, 6]: 2.9 µM
- EC50 [2]: > 10000 nM
- inhibition at 10 µM [2]: 15.4%
- EC50 [3, 7]: 8 nM
- EC50 [4]: 0.046 µM

SMILES: CN1CCN(CC(=O)Nc2cc3cc(-c4cccnc4)ccc3cn2)CC1 [Compound 11, 2-(4-Methylpiperazin-1-yl)-N-(6-(pyridin-3-yl)isoquinolin-3-yl)acetamide]
- EC50 [1, 6]: 5.8 µM
- EC50 [2]: > 10000 nM
- inhibition at 10 µM [2]: 25.6%
- EC50 [3, 7]: 20 nM
- EC50 [4]: 2.5 µM

SMILES: CN1CCCN(CC(=O)Nc2cc3cc(-c4cccnc4)ccc3cn2)CC1 [Compound 12, 2-(4-Methyl-1,4-diazepan-1-yl)-N-(6-(pyridin-3-yl)isoquinolin-3-yl) acetamide]
- EC50 [1, 6]: 2.3 µM
- EC50 [2]: > 10000 nM
- inhibition at 10 µM [2]: 39.3%
- EC50 [3, 7]: 17 nM
- EC50 [4]: 0.284 µM

SMILES: CN1CCN(C[C@H]2CC[C@H](C(=O)Nc3cc4cc(-c5cncc(F)c5)ccc4cn3)CC2)CC1 [Compound 17, trans-N-(6-(5-Fluoropyridin-3-yl)isoquinolin-3-yl)-4-((4-methylpiperazin-1-yl)methyl)cyclohexane-1-carboxamide]
- EC50 [1, 6]: 4.6 µM
- EC50 [2]: 3470 nM
- EC50 [3, 7]: 3 nM
- EC50 [4]: 0.004 µM

SMILES: O=C(CN1CCCC1)Nc1cc2cc(-c3cncc(F)c3)ccc2cn1 [Compound 18, N-(6-(5-Fluoropyridin-3-yl)isoquinolin-3-yl)-2-(pyrrolidin-1-yl)acetamide]
- EC50 [2]: > 10000 nM
- inhibition at 10 µM [2]: 22.2%
- EC50 [3, 7]: 39 nM
- EC50 [4]: 0.053 µM
- EC50 [5]: 123 nM

SMILES: CN1CCN(CC(=O)Nc2cc3cc(-c4ccc(F)nc4)ccc3cn2)CC1 [Compound 21, N-(6-(6-Fluoropyridin-3-yl)isoquinolin-3-yl)-2-(4-methylpiperazin-1-yl) acetamide]
- EC50 [1, 6]: > 10 µM
- EC50 [2]: > 10000 nM
- inhibition at 10 µM [2]: 50%
- EC50 [3, 7]: 42 nM
- EC50 [4]: 1.5 µM

SMILES: CN1CCC(C(=O)Nc2cc3cc(-c4cncc(N5CCCC5)c4)ccc3cn2)CC1 [Compound 50, 1-Methyl-N-(6-(5-(pyrrolidin-1-yl)pyridin-3-yl)isoquinolin-3-yl)piperidine-4-carboxamide]
- EC50 [1, 6]: > 10 µM
- EC50 [2]: 2200 nM
- EC50 [3, 7]: 25 nM
- EC50 [4]: 0.113 µM

SMILES: [2H]c1nc([2H])c(-c2ccc3cnc(NC(=O)CN4CCN(C)CC4)cc3c2)c([2H])c1[2H] [Compound 61, 2-(4-Methylpiperazin-1-yl)-N-(6-(pyridin-3-yl-d4)isoquinolin-3-yl)acetamide]
- EC50 [1, 6]: 9.8 µM
- EC50 [2]: > 10000 nM
- inhibition at 10 µM [2]: 21.6%
- EC50 [3]: 11 nM
- EC50 [4]: 0.121 µM

SMILES: [2H]c1nc([2H])c(-c2ccc3cnc(NC(=O)CN4CCOCC4)cc3c2)c([2H])c1[2H] [Compound 62, 2-Morpholino-N-(6-(pyridin-3-yl-d4)isoquinolin-3-yl)acetamide]
- EC50 [1, 6]: 4.8 µM
- EC50 [2]: > 10000 nM
- inhibition at 10 µM [2]: 16.6%
- EC50 [3]: 9 nM
- EC50 [4]: 0.086 µM

SMILES: O=C(CN1CCOCC1)Nc1cc2cc(-c3ccnnc3)ccc2cn1 [Compound 67, 2-morpholino-N-(6-(pyridazin-4-yl)isoquinolin-3-yl)acetamide]
- EC50 [1, 6]: 1.1 µM
- EC50 [2]: > 10000 nM
- inhibition at 10 µM [2]: 19.2%
- EC50 [3]: 29 nM
- EC50 [4]: 0.206 µM

SMILES: O=C(Nc1cc2cc(-c3cnccn3)ccc2cn1)[C@H]1C[C@H](N2CCOCC2)C1 [Compound 69, trans-3-Morpholino-N-(6-(pyrazin-2-yl)isoquinolin-3-yl)cyclobutane-1-carboxamide]
- EC50 [1, 6]: 2.9 µM
- EC50 [2]: > 10000 nM
- inhibition at 10 µM [2]: 19.5%
- EC50 [3]: 20 nM
- EC50 [4]: 0.227 µM

SMILES: O=C(Nc1cc2cc(-c3cnccn3)ccc2cn1)[C@H]1CC[C@H](N2CCOCC2)CC1 [Compound 71, trans-4-Morpholino-N-(6-(pyrazin-2-yl)isoquinolin-3-yl)cyclohexane-1-carboxamide]
- EC50 [1, 6]: 3.3 µM
- EC50 [2]: > 10000 nM
- inhibition at 10 µM [2]: 14.6%
- EC50 [3]: 11 nM
- EC50 [4]: 0.019 µM

SMILES: O=C(Nc1cc2cc(-c3cnccn3)ccc2cn1)[C@H]1CC[C@H](CN2CC(F)C2)CC1 [Compound 72, trans-4-((3-Fluoroazetidin-1-yl)methyl)-N-(6-(pyrazin-2-yl)isoquinolin-3-yl)cyclohexane-1-carboxamide]
- EC50 [1, 6]: 7.7 µM
- EC50 [2]: > 10000 nM
- inhibition at 10 µM [2]: 35.6%
- EC50 [3]: 7 nM
- EC50 [4]: 0.628 µM

SMILES: CN1CCN(C[C@H]2CC[C@H](C(=O)Nc3cc4cc(-c5cnccn5)ccc4cn3)CC2)CC1 [Compound 73, trans-4-((4-Methylpiperazin-1-yl)methyl)-N-(6-(pyrazin-2-yl)isoquinolin-3-yl)cyclohexane-1-carboxamide]
- EC50 [1, 6]: > 10 µM
- EC50 [2]: > 10000 nM
- inhibition at 10 µM [2]: 50.7%
- EC50 [3]: 4 nM
- EC50 [4]: 0.024 µM

SMILES: O=C(Nc1cc2cc(-c3cnccn3)ccc2cn1)C1CCN(CCF)CC1 [Compound 77, 1-(2-Fluoroethyl)-N-(6-(pyrazin-2-yl)isoquinolin-3-yl)piperidine-4-carboxamide]
- EC50 [1, 6]: > 10 µM
- EC50 [2]: > 10000 nM
- inhibition at 10 µM [2]: 33.8%
- EC50 [3, 7]: 11 nM
- EC50 [4]: 0.062 µM

SMILES: O=C(Nc1cc2cc(-c3cnccn3)ccc2cn1)C1CCN(C2COC2)CC1 [Compound 78, 1-(Oxetan-3-yl)-N-(6-(pyrazin-2-yl)isoquinolin-3-yl)piperidine-4-carboxamide]
- EC50 [1, 6]: > 10 µM
- EC50 [2]: > 10000 nM
- inhibition at 10 µM [2]: 27.7%
- EC50 [3, 7]: 13 nM

SMILES: CC(C)Nc1cncc(-c2ccc3cnc(NC(=O)C4CCN(C)CC4)cc3c2)n1 [Compound 88, N-(6-(6-(Isopropylamino)pyrazin-2-yl)isoquinolin-3-yl)-1-methylpiperidine-4-carboxamide]
- EC50 [1, 6]: 0.129 µM
- EC50 [2]: 364 nM
- EC50 [3, 7]: 1 nM
- EC50 [4]: < 0.003 µM
